Measurements as given in ChEMBL document CHEMBL1147387, “A cytotoxic beta-carboline from the bryozoan Catenicella cribraria” (1993).

Assay: Cytotoxicity against human NCI60 cells
Assay type: functional

## C=Cc1nccc2c1[nH]c1c(O)cccc12
  GI50: 1800 nM
  TGI: 5.8 µM
read-out: LC50 (the source's name)
  CC50: 19 µM
